{"source": "paper PMC12116762", "about": "“Topobexin targets the Topoisomerase II ATPase domain for beta isoform-selective inhibition and anthracycline cardioprotection” (Nature Communications, 2025)", "key": {"[1]": {"experiment": "Plasma pharmacokinetics in rabbits (LC-MS/MS)", "type": "in vivo, rabbit", "experimental": "Six rabbits were used to determine the plasma pharmacokinetics of topobexin (9). The compound was used as a dihydrochloride and was dissolved right before administration in sterile saline (10 mg of free base/ml); pH was optimized using NaOH and the solution was filtered through an antimicrobial filter (0.22 µm porosity, Carl Roth GmbH + Co. KG, Germany). The drug was administered i.v. using marginal ear vein at 10 mg/kg (counted as a free base) in a 20 min infusion. The dose, route of administration, and timing of infusion were determined based on preliminary pharmacokinetic experiments. Blood for pharmacokinetic analysis was collected from the central artery in the contralateral ear before drug administration (blank) and in preselected time intervals after drug administration (5 min to 10 h). Blood was collected in BD Vacutainer tubes (BD Biosciences, Plymouth, UK) containing lithium heparin. All samples were immediately centrifuged (5 min, 3000 × g), plasma was harvested and frozen immediately in liquid nitrogen and the samples were stored at -80 °C until analysis.\nThe concentration of topobexin (9) was determined in plasma samples using an analytical method developed and validated for this purpose. Briefly, rabbit plasma (50 μl) was spiked with internal standard (compound 14), precipitated with ice-cold acetonitrile (200 μl), vortexed (30 s), and centrifuged (10 min, 9520 × g, 4 °C). The resulting supernatant was filtered through a 0.45 μm porosity filter (Milex – Hv, Merck Milipore, Darmstadt, Germany) and analyzed using UHPLC-MS. Agilent 1290 Infinity II LC with Triple Quad LC/MS (6400 series), a Jet Stream Electrospray and Mass Hunter software (Agilent, Santa Clara, CA, USA) were used for the analyzes and data treatment, respectively. Chromatographic separation was achieved on the Zorbax Eclipse Plus C18 column (50 × 2.1 mm, 1.8 μm, […], Dublin, Ireland). The mobile phase composed of part A (0.0025% formic acid) and part B (acetonitrile) was mixed in the following gradient: 0–1 min (10% B), 1–3 (10–60% B), 3–3.5 min (60% B), 3.51–5 min (80% B), 5.01–6 min (10% B). The flow rate of mobile phase was 0.3 mL/min and 2 μL of the sample were injected onto the column. The linearity of the method was verified within the concentration range of 1 to 1000 nM topobexin (9) in rabbit plasma."}, "TOP2B": {"biological_target": "T1, TOP2B (Rattus norvegicus, UniProt A0A8I5Y7L4)", "T1 construct": "endogenous in cells; host or cells: primary neonatal Wistar rat ventricular cardiomyocytes (NVCM)", "T1 sequence (A0A8I5Y7L4 1-1614)": "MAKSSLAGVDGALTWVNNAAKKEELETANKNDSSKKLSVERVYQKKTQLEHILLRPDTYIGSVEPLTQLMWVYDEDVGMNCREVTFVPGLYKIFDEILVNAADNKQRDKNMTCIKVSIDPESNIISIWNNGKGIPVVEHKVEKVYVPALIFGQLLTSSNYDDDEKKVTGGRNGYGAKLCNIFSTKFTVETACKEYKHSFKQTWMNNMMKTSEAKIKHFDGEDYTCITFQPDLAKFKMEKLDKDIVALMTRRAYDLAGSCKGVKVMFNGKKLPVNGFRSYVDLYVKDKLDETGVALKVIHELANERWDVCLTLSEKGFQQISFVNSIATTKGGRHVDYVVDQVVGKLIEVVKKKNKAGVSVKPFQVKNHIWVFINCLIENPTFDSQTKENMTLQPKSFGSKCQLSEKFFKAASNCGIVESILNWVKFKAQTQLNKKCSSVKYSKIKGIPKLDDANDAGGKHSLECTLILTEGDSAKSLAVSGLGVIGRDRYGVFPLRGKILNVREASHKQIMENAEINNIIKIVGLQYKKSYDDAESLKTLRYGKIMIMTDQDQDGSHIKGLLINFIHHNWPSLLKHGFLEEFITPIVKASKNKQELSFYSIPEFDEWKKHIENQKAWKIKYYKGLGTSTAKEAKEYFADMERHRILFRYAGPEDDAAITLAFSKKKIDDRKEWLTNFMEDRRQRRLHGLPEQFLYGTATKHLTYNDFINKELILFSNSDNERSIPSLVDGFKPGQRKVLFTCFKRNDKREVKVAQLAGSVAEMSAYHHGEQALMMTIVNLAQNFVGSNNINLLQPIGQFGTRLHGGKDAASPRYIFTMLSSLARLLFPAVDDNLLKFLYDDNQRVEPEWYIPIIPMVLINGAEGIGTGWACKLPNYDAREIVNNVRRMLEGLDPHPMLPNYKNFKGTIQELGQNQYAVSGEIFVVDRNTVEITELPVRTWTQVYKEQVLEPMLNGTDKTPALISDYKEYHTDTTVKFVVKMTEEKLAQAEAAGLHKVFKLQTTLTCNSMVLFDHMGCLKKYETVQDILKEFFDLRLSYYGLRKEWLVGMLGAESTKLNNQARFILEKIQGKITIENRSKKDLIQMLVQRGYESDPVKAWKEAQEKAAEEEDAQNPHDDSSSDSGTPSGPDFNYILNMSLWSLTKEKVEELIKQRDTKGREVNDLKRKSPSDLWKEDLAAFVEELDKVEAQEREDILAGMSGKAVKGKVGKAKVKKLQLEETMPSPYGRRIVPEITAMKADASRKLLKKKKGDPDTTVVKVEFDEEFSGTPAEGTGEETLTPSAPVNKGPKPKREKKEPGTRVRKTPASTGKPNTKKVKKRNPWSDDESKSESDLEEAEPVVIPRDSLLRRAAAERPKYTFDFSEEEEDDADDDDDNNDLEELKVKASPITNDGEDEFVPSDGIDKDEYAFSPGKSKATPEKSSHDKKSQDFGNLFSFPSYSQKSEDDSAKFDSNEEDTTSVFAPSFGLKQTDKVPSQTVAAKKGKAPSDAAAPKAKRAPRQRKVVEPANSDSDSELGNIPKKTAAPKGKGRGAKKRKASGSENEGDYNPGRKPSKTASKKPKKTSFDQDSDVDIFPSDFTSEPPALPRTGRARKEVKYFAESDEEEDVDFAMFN", "experiment": "TOP2B protein levels in NVCM (Western blotting)", "type": "cell-based", "details": "for TOP2B protein level: independent replicates", "experimental": "TOP2B and γH2AX levels in NVCM were determined as follows. After incubation, 4 × 10^5 rat neonatal cardiomyocytes were lysed with 75 µL of 2% SDS in 0.1 M Tris (pH 7.4) and boiled at 95 °C for 5 min. The protein content of each sample was determined by the BCA method and 10 μg of total protein were loaded onto a polyacrylamide gel (7.5% for TOP2B, 12% for γH2AX, Bio-Rad TGX stain-free gels). After approximately 75 min of electrophoresis (150 V, Bio-Rad Mini-PROTEAN Tetra Cell), the gels were transblotted onto nitrocellulose membranes using a semi-dry method in Transblot Turbo (Bio-Rad, USA). The next day, the membranes were blocked for 1 h in 5% skimmed milk powder in 0.05% TBS-T at room temperature (RT). For TOP2 analysis, membranes were incubated with rabbit anti-TOP2A/B (1:2,000, ab109524, Abcam, UK) in 1% BSA in PBS for 1 h at RT, washed 6 times for 5 min in 0.05% TBS-T and then incubated with HRP-labeled F(ab’)2 goat anti-rabbit IgG (1:10,000, ab6112, Abcam, UK) in 0.05% TBS-T for 1 h RT and washed again (6 × 5 min in 0.05% TBS-T). For γH2AX analysis, membranes were incubated with mouse anti-γH2AX (1:5,000; ab26350, Abcam, UK) in 5% BSA in PBS for 1 h at RT, washed with 0.05% PBS-T for 6 × 5 min, incubated with HRP-conjugated anti-mouse IgG (1:40,000; A9044 Sigma Aldrich, USA) in 5% BSA in PBS for 1 h RT and finally washed with 0.05% PBS-T for 6 times 5 min. Target proteins were visualized using a chemiluminescent detection substrate (Clarity Western ECL Substrate, Bio-Rad, USA) and a Gel Doc EZ with Image Lab software (Bio-Rad, USA). Full, uncropped images of all blots present in the manuscript figures are included in the source data file.\nDensitometric quantification was performed using Image Lab software (Bio-Rad). Stain-free technology was used to visualize the total protein on the gel and normalize the total protein amount in each line. Each presented data point was obtained from distinct sample."}, "[2]": {"details": "iv, rabbit plasma, 10 mg/kg, 20 min i.v. infusion"}}, "note": "“And” between values parts separate entries of the source, which are not always exact repeats. Identical values can stand only once.", "data": [{"smiles": "CCCc1cc(=O)oc2c(C(=O)N3CCCc4ccccc43)c(OCCN3CCN(C)CC3)ccc12", "note": "[topobexin (9)]", "values": [{"measurement": "Plasma concentration", "setting": "[1]; 10 min, individual subjects", "result": "9.134 µM and 17.429 µM and 15.678 µM and 15.114 µM and 12.648 µM"}, {"measurement": "Plasma concentration", "setting": "[1]; 20 min, individual subjects", "result": "11.689 µM and 11.373 µM and 12.322 µM and 16.573 µM and 12.398 µM"}, {"measurement": "Plasma concentration", "setting": "[1]; 40 min, individual subjects", "result": "4.374 µM and 4.139 µM and 3.247 µM and 3.779 µM and 3.693 µM"}, {"measurement": "Plasma concentration", "setting": "[1]; 60 min, individual subjects", "result": "1.755 µM and 3.643 µM and 3.122 µM and 2.610 µM and 3.293 µM and 2.847 µM"}, {"measurement": "Plasma concentration", "setting": "[1]; 120 min, individual subjects", "result": "1.524 µM and 1.569 µM and 1.234 µM and 1.184 µM and 1.188 µM"}, {"measurement": "Plasma concentration", "setting": "[1]; 240 min, individual subjects", "result": "0.456 µM and 0.440 µM and 0.629 µM and 0.503 µM and 0.425 µM"}, {"measurement": "Plasma concentration", "setting": "[1]; 360 min, individual subjects", "result": "0.161 µM and 0.144 µM and 0.140 µM and 0.225 µM and 0.134 µM"}, {"measurement": "Plasma concentration", "setting": "[1]; 480 min, individual subjects", "result": "0.110 µM and 0.051 µM and 0.053 µM and 0.103 µM and 0.049 µM"}, {"measurement": "Plasma concentration", "setting": "[1]; 600 min, individual subjects", "result": "0.019 μM (2×) and 0.026 μM (2×) and 0.018 μM"}, {"measurement": "Cmax", "setting": "[1]; [2]", "result": "13.5 ± 3.2", "unit": "µM"}, {"measurement": "Tmax", "setting": "[1]; [2]", "result": 10, "unit": "min"}, {"measurement": "concentrations present in rabbits during daunorubicin administration", "setting": "[1]; plasma", "result": "≤ 3", "unit": "µM"}, {"measurement": "Plasma concentration", "setting": "[1]; rabbit, 10 mg/kg 20 min i.v. infusion, 5 min, individual subjects, 10 mg/kg", "result": "7.668 µM and 14.456 µM and 10.833 µM and 11.650 µM and 11.714 µM"}, {"measurement": "time with plasma concentration ≥ 1 μM", "setting": "[1]; rabbit, 10 mg/kg, 20 min i.v. infusion", "result": 2.5, "unit": "h"}, {"measurement": "concentration at 10 min", "setting": "[1]; rabbit, plasma, intravenous, 10 mg/kg, 10 min, individual subjects", "result": 10.8, "unit": "µM"}, {"measurement": "concentration at 20 min", "setting": "[1]; rabbit, plasma, intravenous, 10 mg/kg, 20 min, individual subjects", "result": 10.5, "unit": "µM"}, {"measurement": "concentration at 40 min", "setting": "[1]; rabbit, plasma, intravenous, 10 mg/kg, 40 min, individual subjects", "result": 3.47, "unit": "µM"}, {"measurement": "concentration at 120 min", "setting": "[1]; rabbit, plasma, intravenous, 10 mg/kg, 120 min, individual subjects", "result": 1.32, "unit": "µM"}, {"measurement": "concentration at 240 min", "setting": "[1]; rabbit, plasma, intravenous, 10 mg/kg, 240 min, individual subjects", "result": 0.429, "unit": "µM"}, {"measurement": "concentration at 360 min", "setting": "[1]; rabbit, plasma, intravenous, 10 mg/kg, 360 min, individual subjects", "result": 0.155, "unit": "µM"}, {"measurement": "concentration at 600 min", "setting": "[1]; rabbit, plasma, intravenous, 10 mg/kg, 600 min, individual subjects", "result": 0.025, "unit": "µM"}, {"measurement": "concentration at 5 min", "setting": "[1]; rabbit, plasma, iv, 10 mg/kg, 10 mg/kg 20 min i.v. infusion, 5 min, individual subjects", "result": 11.1, "unit": "µM"}, {"measurement": "TOP2B protein levels in NVCM", "setting": "TOP2B", "result": "potent and concentration-dependent depletion"}, {"measurement": "TOP2B protein level, mean", "setting": "TOP2B; 0.1 µM, ctr mean 100", "result": 23.4137}, {"measurement": "TOP2B protein level", "setting": "TOP2B; 0.1 µM, ctr mean 100", "result": "11.507 and 22.9519 and 35.7822"}, {"measurement": "TOP2B protein level, mean", "setting": "TOP2B; 1 µM", "result": 1.8687}, {"measurement": "TOP2B protein level", "setting": "TOP2B; 1 μM", "result": "0.3883 and 3.978 and 1.24"}, {"measurement": "TOP2B protein level, mean", "setting": "TOP2B; 10 µM", "result": 0.6098}, {"measurement": "TOP2B protein level", "setting": "TOP2B; 10 µM", "result": "0.07384 and 0.9813 and 0.7742"}]}]}
